Assay results reported in article PMC8151276, “An Integrated Approach toward NanoBRET Tracers for Analysis of GPCR Ligand Engagement” (Molecules, 2021).

Columns and labels:
Assay type in all cases: binding
FZD2 = target: T1, FZD2 (Homo sapiens, UniProt Q14332); assay: NanoBRET screen HiBiT-FZD2 in HEK293
T1 construct: purchased Promega (in-house HiBiT-GPCR construct library, NanoBRET)
Protocol: (§1) Each tracer candidate was screened across the entire library of HiBiT-GPCR constructs using NanoBRET as the detection modality. As depicted in Figure 4A, the specificity of interactions was evaluated through decrease in BRET due to competitive displacement of a bound tracer by excess parental compound. Each tracer was analyzed for binding to each HiBiT-GPCR fusion in the absence and in the presence of competing parental compound. Briefly, HEK293 cells were transfected with HiBiT-GPCR constructs diluted into promoterless DNA to reduce expression and maximize translocation to the cell surface. Each tracer candidate was then screened at concentrations of 1 μM and 0.1 μM across cells expressing these fusions. Cells were treated for 1.5 h with tracer either alone or in the presence of 20 μM competing parental compound (i.e., control). BRET was measured upon addition of purified LgBiT and subsequent complementation with HiBiT genetically fused to a GPCR. The specificity of interactions was assessed through a decrease in BRET signal due to competitive displacement of the bound tracer. To further gauge the robustness of these interactions, the fold response over the control (i.e., BRETtracer/BRETcontrol) was calculated. We chose a 1.5-fold response, which translates to ≥7-fold signal over noise as the minimal threshold required to score an interaction as positive. […]. Below we highlight the screening results obtained for our exemplary fluorescent tracers based on Clozapine, Amitriptyline and AZD1283.
(§2) HiBiT-GPCR DNA constructs were diluted in 10 mM Tris pH 8 to a final concentration of 0.01 μg/μL, arrayed in 96-well plates and stored at −20 °C. For transfection, HEK293 cells were suspended in Opti-MEM (without phenol red) supplemented with 2% fetal bovine serum (Seradigm) and 100 units/mL penicillin–streptomycin (Gibco) at a final concentration of 220,000 cells/mL and dispensed into white 96-well plates at 90 μL/well. Subsequent transfections and screens were carried using an Agilent Bravo Automated Liquid Handling Platform. First, the 96-well HiBiT DNA arrays were diluted 25-fold in Opti-MEM (without serum or phenol red) to a final concentration of 0.0004 μg/μL and 20 μL of the diluted DNAs were transferred into new 96-well plates. Next, promoterless carrier DNA (1 μg/μL) was diluted 25-fold (0.04 μg/μL) and then dispensed into the diluted arrays at 20 μL/well. Following brief mixing, Viafect transfection reagent (Promega) diluted 16-fold into Opti-MEM was dispensed into the plates at 40 μL/well. After mixing by pipetting, plates were incubated for 10 min on the pipetting station deck. The DNA-transfection reagent complexes were then added to plates containing cells. To facilitate the screen, 10 μL of DNA-transfection reagent complexes were added in duplicates to the top 4 and bottom 4 rows, resulting in two identical 48-well arrays per plate. Plates with transfected cells were incubated for 18–20 h at 37 °C/5% CO2. A screen of each tracer across the entire library using two different concentrations requires duplicate plates of transfected cells. Depending on the number of tracers being screened, transfections can be scaled up using the same ratios. The next day, for each tracer, four 20× screening solutions in tracer dilution buffer (Promega) were prepared: two duplicates at final concentration of 20 μM and two duplicates at a final concentration of 2 μM. A competing unmodified compound was added to one of each duplicate at a final concentration of 400 μM. The four resulting solutions were diluted 4-fold in Opti-MEM without serum or phenol red to generate 5× solutions (5 µM and 0.5 µM tracer +/− 100 μM competing compound). To screen the library, a BioTek MultiFlo FX liquid dispenser was used to dispense 22.5 µL of tracer solution to the top 4 rows and 22.5 µL tracer + competing compound solution to the 4 bottom rows. Plates were briefly mixed on an orbital shaker and incubated for 1.5 h at room temperature. […]

HTR5A = target: T2, HTR5A (Homo sapiens, UniProt P47898); assay: NanoBRET screen HiBiT-HTR5A in HEK293
T2 construct: purchased Promega (in-house HiBiT-GPCR construct library, NanoBRET)
Protocol: as §1, §2

P2RY6 = target: T3, P2RY6 (Homo sapiens, UniProt Q15077); assay: NanoBRET screen HiBiT-P2RY6 in HEK293
T3 construct: purchased Promega (in-house HiBiT-GPCR construct library, NanoBRET)
Protocol: as §1, §2

GALR1 = target: T4, GALR1 (Homo sapiens, UniProt P47211); assay: NanoBRET screen HiBiT-GALR1 in HEK293
T4 construct: purchased Promega (in-house HiBiT-GPCR construct library, NanoBRET)
T4 sequence (P47211 1-349): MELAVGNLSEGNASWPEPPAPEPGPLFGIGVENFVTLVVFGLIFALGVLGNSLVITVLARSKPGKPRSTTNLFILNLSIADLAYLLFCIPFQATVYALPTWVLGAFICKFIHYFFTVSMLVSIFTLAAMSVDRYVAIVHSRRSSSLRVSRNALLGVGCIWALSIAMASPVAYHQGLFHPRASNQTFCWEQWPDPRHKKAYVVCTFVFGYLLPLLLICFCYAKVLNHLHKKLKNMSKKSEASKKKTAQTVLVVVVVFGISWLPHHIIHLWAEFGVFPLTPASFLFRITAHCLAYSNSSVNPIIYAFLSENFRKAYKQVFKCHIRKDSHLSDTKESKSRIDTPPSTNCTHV
Protocol: as §1, §2

OXTR = target: T5, OXTR (Homo sapiens, UniProt P30559); assay: NanoBRET screen HiBiT-OXTR in HEK293
T5 construct: purchased Promega (in-house HiBiT-GPCR construct library, NanoBRET)
T5 sequence (P30559 1-389): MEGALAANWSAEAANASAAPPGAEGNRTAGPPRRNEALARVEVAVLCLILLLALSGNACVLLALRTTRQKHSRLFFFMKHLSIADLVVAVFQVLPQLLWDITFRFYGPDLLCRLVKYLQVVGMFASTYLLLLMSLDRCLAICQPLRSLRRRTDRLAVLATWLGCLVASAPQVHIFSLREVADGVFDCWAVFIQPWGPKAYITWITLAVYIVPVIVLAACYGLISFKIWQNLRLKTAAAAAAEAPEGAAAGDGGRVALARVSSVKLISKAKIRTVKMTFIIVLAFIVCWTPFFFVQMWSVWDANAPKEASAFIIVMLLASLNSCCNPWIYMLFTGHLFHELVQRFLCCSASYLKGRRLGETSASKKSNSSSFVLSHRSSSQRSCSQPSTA
Protocol: as §1, §2

GRM8 = target: T6, GRM8 (Homo sapiens, UniProt O00222); assay: NanoBRET screen HiBiT-GRM8 in HEK293; settings: GRM8
T6 construct: purchased Promega (in-house HiBiT-GPCR construct library, NanoBRET)
Protocol: as §1, §2

[1] = tracer at 0.1μM, listed as amitriptyline-b-2-NB590
[2] = tracer at 1μM, listed as amitriptyline-b-2-NB590

T1 sequence (Q14332 24-565): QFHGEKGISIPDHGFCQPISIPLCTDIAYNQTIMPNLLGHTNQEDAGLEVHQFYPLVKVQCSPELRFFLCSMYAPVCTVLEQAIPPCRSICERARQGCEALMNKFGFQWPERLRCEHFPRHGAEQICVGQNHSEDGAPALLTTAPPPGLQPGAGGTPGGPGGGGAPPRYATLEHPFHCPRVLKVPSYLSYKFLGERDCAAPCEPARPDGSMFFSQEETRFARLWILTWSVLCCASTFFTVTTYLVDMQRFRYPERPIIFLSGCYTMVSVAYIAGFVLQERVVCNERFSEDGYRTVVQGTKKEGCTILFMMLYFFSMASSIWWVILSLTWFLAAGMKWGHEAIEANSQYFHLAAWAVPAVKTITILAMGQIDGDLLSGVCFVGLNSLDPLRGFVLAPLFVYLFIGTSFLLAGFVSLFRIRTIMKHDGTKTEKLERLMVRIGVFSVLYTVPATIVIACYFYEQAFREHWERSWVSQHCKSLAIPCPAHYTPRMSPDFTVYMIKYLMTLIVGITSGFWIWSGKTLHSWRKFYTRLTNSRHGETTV
T2 sequence (P47898 whole entry): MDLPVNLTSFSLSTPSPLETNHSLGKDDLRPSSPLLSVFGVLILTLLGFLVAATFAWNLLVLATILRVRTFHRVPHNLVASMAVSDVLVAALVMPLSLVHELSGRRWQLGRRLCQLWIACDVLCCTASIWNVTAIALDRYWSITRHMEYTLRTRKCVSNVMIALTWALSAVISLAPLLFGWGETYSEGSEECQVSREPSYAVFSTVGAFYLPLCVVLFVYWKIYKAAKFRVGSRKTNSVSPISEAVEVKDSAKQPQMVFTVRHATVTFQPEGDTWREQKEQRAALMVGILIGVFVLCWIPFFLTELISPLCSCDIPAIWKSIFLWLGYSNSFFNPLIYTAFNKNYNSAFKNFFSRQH
T6 sequence (O00222 34-908): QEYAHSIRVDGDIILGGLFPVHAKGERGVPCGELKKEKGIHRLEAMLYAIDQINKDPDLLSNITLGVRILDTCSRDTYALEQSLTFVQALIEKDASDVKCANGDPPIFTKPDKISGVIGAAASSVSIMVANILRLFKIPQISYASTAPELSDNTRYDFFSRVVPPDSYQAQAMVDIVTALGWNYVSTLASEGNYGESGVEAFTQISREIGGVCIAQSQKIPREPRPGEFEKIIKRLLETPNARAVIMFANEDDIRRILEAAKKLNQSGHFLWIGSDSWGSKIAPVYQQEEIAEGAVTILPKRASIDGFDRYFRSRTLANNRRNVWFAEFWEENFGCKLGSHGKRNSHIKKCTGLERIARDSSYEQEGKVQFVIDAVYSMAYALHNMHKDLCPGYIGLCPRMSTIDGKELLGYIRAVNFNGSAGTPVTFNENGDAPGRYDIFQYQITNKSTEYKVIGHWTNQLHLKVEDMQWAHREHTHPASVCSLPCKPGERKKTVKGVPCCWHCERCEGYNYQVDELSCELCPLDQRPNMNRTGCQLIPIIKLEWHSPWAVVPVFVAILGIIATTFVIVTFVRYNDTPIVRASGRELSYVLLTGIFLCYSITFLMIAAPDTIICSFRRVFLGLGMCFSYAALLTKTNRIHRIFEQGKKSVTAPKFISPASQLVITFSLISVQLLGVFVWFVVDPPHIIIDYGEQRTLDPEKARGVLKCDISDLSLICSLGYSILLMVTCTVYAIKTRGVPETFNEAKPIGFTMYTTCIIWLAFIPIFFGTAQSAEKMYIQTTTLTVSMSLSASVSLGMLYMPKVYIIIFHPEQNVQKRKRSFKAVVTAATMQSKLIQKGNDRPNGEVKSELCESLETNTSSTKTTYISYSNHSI
T3 sequence (Q15077 whole entry): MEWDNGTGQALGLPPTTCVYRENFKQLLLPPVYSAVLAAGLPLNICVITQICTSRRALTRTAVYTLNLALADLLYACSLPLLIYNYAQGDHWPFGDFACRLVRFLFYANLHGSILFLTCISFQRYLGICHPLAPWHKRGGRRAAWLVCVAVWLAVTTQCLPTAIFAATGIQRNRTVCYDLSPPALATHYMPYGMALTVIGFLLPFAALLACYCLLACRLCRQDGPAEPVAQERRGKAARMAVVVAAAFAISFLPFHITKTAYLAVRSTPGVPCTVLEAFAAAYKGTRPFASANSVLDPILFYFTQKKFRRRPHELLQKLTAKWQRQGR

CN(C)CCC=C1c2ccccc2CCc2ccc(C(=O)NCCNC(=O)CCOCCOCCOCCOCCNC(=O)CCc3ccc4n3[B-](F)(F)[N+]3=C(c5ccc[nH]5)C=CC3=C4)cc21 [Amitriptyline-a-2-NB590]
NanoBRET Fold Response (FZD2; tracer at 0.1μM): 1.04 | NanoBRET Fold Response (FZD2; tracer at 1μM): 1.00 | NanoBRET Fold Response (HTR5A; tracer at 0.1μM): 1.08 | NanoBRET Fold Response (P2RY6; tracer at 0.1μM): 1.00 | NanoBRET Fold Response (P2RY6; tracer at 1μM): 0.94 | NanoBRET Fold Response (GALR1; tracer at 0.1μM): 1.05 | NanoBRET Fold Response (GALR1; tracer at 1μM): 0.97 | NanoBRET Fold Response (OXTR; tracer at 0.1μM): 0.99 | NanoBRET Fold Response (OXTR; tracer at 1μM): 1.09

CN(C)CCC=C1c2ccccc2CCc2ccc(C(=O)NCCNC(=O)CCOCCOCCOCCOCCNC(=O)CCc3ccc4n3[B-](F)(F)[N+]3=C(c5ccc[nH]5)C=CC3=C4)cc21 [Amitriptyline-b-2-NB590]
NanoBRET Fold Response (FZD2; [1]): 1.03 | NanoBRET Fold Response (FZD2; [2]): 0.94 | NanoBRET Fold Response (HTR5A; [1]): 1.22 | NanoBRET Fold Response (HTR5A; [2]): 1.26 | NanoBRET Fold Response (P2RY6; [1]): 1.04 | NanoBRET Fold Response (P2RY6; [2]): 0.95 | NanoBRET Fold Response (GALR1; [1]): 0.98 | NanoBRET Fold Response (GALR1; [2]): 1.03 | NanoBRET Fold Response (OXTR; [1]): 1.08 | NanoBRET Fold Response (OXTR; [2]): 1.01 | NanoBRET Fold Response (GRM8; tracer 0.1μM): 1.01 | NanoBRET Fold Response (GRM8; tracer 1μM): 0.99

CN(CCC=C1c2ccccc2CCc2ccccc21)C(=O)CCOCCOCCOCCOCCNC(=O)CCc1ccc2n1[B-](F)(F)[N+]1=C(c3ccc[nH]3)C=CC1=C2 [Amitriptyline-e-2-NB590]
NanoBRET Fold Response (FZD2; tracer at 1μM): 1.03 | NanoBRET Fold Response (HTR5A; tracer at 1μM): 1.05

CN1CCN(C2=Nc3cc(Cl)ccc3Nc3ccc(CNC(=O)CCOCCOCCOCCOCCNC(=O)CCc4ccc5n4[B-](F)(F)[N+]4=C(c6ccc[nH]6)C=CC4=C5)cc32)CC1 [Clozapine-b-2-NB590]
NanoBRET Fold Response (FZD2; FZD2, 0.1μM tracer): 1.01 | NanoBRET Fold Response (FZD2; FZD2, 1μM tracer): 1.11 | NanoBRET Fold Response (HTR5A; HTR5A, 0.1μM tracer): 1.07 | NanoBRET Fold Response (HTR5A; HTR5A, 1μM tracer): 1.35 | NanoBRET Fold Response (P2RY6; P2RY6, 0.1μM tracer): 1.04 | NanoBRET Fold Response (P2RY6; P2RY6, 1μM tracer): 0.98 | NanoBRET Fold Response (GALR1; GALR1, 0.1μM tracer): 0.99 | NanoBRET Fold Response (GALR1; GALR1, 1μM tracer): 0.99 | NanoBRET Fold Response (OXTR; OXTR, 0.1μM tracer): 1.05 | NanoBRET Fold Response (OXTR; OXTR, 1μM tracer): 1.03 | NanoBRET Fold Response (GRM8; 0.1μM tracer): 1.01 | NanoBRET Fold Response (GRM8; 1μM tracer): 1.02
